# Experimental data published in patent US20090227606A1, “Methods for Preventing or Treating Acute and Chronic Pain” (priority 2006, published 2009).
# Entries after “also recorded” stand apart in the source; their conditions may differ.
# Tests used:
# GLAST mRNA [1] = assay: Real Time RT-PCR of cultured astrocytes, GLAST mRNA; type: cell-based, rat
# Description: After approximately 14 days (2 days after subplating into plates, DIV 14) astrocytes had formed a confluent monolayer. […] Phase contrast microscopy was then carried out in order to assess the morphology of cells after the various treatments. Length of astrocyte processes was quantified by measuring all processes in 2-3 phase contrast images/group by an independent observer, blinded to the treatment groups using Image J v1.34s (National Institutes of Health, Bethesda, Md.).
# Total RNA was isolated from astrocyte cultures using the Qiagen RNeasy mini-kit (Qiagen Inc., Valencia, Calif.) according to the manufacturer's protocol for isolation of total RNA from animal cells. Reverse transcription (RT) was carried out using the high-capacity cDNA archive kit (Applied Biosystems, Foster City, Calif.) according to the vendor's protocol. Real-time RT-PCR reactions were carried out in a total reaction volume of 25 μL containing a final concentration of 1.5 U Platinum Taq DNA polymerase (Invitrogen Corporation, Carlsbad, Calif.); 20 mM Tris HCl (pH 8.4); 50 mM KCl; 3 mM MgCl2; 200 μM dGTP, dCTP, and dATP; 400 μM dUTP and 1 U of UDG (uracyl DNA glycosylase); 900 nM of forward and reverse primers; 300 nM Taqman probe; and 5 μL of cDNA (50 ng) from the RT step. The iCycler™ Multicolor Real-Time PCR detection system (Bio-Rad Laboratories, Hercules, Calif.) was used to quantify PCR product. The fluorescence and threshold values (CT) obtained were used to compare the relative amount of target mRNA in experimental groups to those of controls using the 2^−ΔΔC^T method (Livak, K. J. and T. D. Schmittgen. 2001. Methods 25:402-408). Each experiment was run twice and samples were run in duplicate. For each sample, the mean CT value for the control gene (GAPDH) was then subtracted from the mean CT value for the gene of interest (GLT-1, GLAST) to obtain a ΔCT value. […] The relative fold change from control was then expressed by calculation of 2^−ΔΔC^T for each sample and the results are expressed as the group mean fold change±SEM.
# GLAST mRNA [2] = assay: Real Time RT-PCR of ipsilateral lumbar spinal cord, GLAST mRNA; type: in vivo, rat
# Description: Tissue was collected from 4-5 rats/group on postoperative days 4 or 12. In order to obtain both mRNA and protein from the same tissue sample, the L5 region of the spinal cord (ipsilateral to the injury), was isolated and placed in PBS supplemented with protease inhibitor cocktail (1:1000, Sigma Chemical Co., St. Louis, Mo.) and RNase inhibitor (0.75 U/μL Ambion, Austin, Tex.). Samples were sonicated in five one-second bursts at half-maximal power, centrifuged at 6500 rpm for 15 minutes at 4° C. Protein-containing supernatants were collected and stored at −80° C. until further processing by Western blot analysis. […]
# Real time RT-PCR reactions were carried out in a total reaction volume of 25 μL containing a final concentration of 1.5 U Platinum Taq DNA polymerase (Invitrogen Corporation, Carlsbad, Calif.); 20 mM Tris HCl (pH 8.4); 50 mM KCl; 3 mM MgCl2; 200 μM dGTP, dCTP, and dATP; 400 μM dUTP and 1 U of UDG (uracyl DNA glycosylase); 900 nM of forward and reverse primers; 300 nM Taqman probe; and 5 μL of a 10-fold dilution of cDNA (50 ng) from the RT step. The iCycler™ Multicolor Real-Time PCR detection system (Bio-Rad, Hercules, Calif.) was used to quantify PCR product. […] The relative fold change from control was then expressed by calculation of 2^−ΔΔC^T for each sample and the results are expressed as the group mean fold change±SEM.
# [3] = tested on: L5 spinal nerve transected mice; assay: Mechanical allodynia after L5 spinal nerve transection in eGFP-GLT-1/DsRed-GLAST transgenic mice; type: in vivo, mouse; conditions: for first day on which inhibition of mechanical allodynia was evident: 10 mg/kg i.p. daily
# Description: In addition to studies using a rat model of pain for examining the role of glutamate transporters in the therapeutic response (analgesic) of propentofylline treatment, studies were also performed in a double transgenic reporter mouse line that expressed eGFP-GLT-1/DsRed-GLAST. Use of the transgenic mouse model further defined the effect of propentofylline on glutamate transporters, GLT-1 and GLAST. The animals were injected intraperitoneally with 10 mg/kg propentofylline in sterile saline or saline vehicle alone (n=5 to 8 per group). The first injections were administered one hour prior to L5 spinal nerve transection and continued daily in the evening (between 5 and 7 PM) until day 12 post-transection. Mice received either an L5 spinal nerve transection or sham surgery on day 0. The development of mechanical allodynia was monitored on days 1, 3, 5, 7, 9 and 12 as described for rats previously. The monitoring was performed in the morning at approximately 15 hours post-propentofylline or saline injection. Mice were transcardially perfused on day 12 post-transection, spinal cords were removed, and the tissue was processed for immunohistochemistry.
# Transgenic mice on a C57B1/6 background were created according to the methods previously described (Regan et al. 2006. J. Neuroscience, in press). Briefly, in order to determine where in the central nervous system GLAST is expressed, transgenic mice were created using a bacterial artificial chromosome containing the GLAST gene plus 18 kb of DNA upstream of the first exon and 60 kb downstream of the last exon. DsRed cDNA was inserted into the first exon to allow expression of DsRed instead of GLAST when the promoter is active. Similarly, in order to investigate the distribution of GLT-1, transgenic mice expressing GLT-1 with eGFP running from the promoter were also created. These two types of transgenic mice were crossed and the resultant double transgenic eGFP-GLT-1/DsRed-GLAST mice were used in the experiments at 8 to 10 weeks of age.
compound,measurement,setting,value
CCCn1cnc2c1c(=O)n(CCCCC(C)=O)c(=O)n2C [propentofylline],increase in GLAST mRNA,GLAST mRNA [1]; both days 3 and 7,1.5-2 fold
same,"GLAST mRNA level, in words","GLAST mRNA [1]; propentofylline 10, 100, 1000 μM, db-cAMP 250 μM, relative to GAPDH",enhancement of GLT-1 and GLAST mRNA levels in a dose-dependent manner; also recorded: dose-dependently induced GLT-1 and GLAST at the mRNA level
same,GLAST mRNA in lumbar spinal cord,"GLAST mRNA [2]; day 4, compared to L5 spinal nerve transection alone",slight decrease in GLAST mRNA
same,GLAST mRNA levels (FIG. 9B legend),GLAST mRNA [2]; days 4 and 12 post-transection,unaffected
same,first day on which inhibition of mechanical allodynia was evident,[3]; 0.008 g filament,3 days
same,mechanical allodynia (0.008 g and 0.02 g von Frey filaments),"[3]; 10 mg/kg intraperitoneally daily, from one hour prior to transection",significant decrease in mechanical allodynia; also recorded: robustly inhibited the development of mechanical allodynia in mice; also recorded: remained similar to the sham control mice at every time point for both filaments
same,first day on which inhibition of mechanical allodynia was evident,[3]; 0.02 g filament,1 days
